What was measured:
[1] = Disintegration and dissolution time of lyophilisates, adjusted Ph. Eur. 7.4 oral lyophilisates method; type: physicochemical; details: lyophilisate about 1 mg from 12.5 % (m/V) solution, 300 µL TRIS buffer pH 7.4, about 22°C, no stirring
Method: Disintegration of substances described in Examples 5 and 6 were determined according to the method described in the European Pharmacopoeia 7.4 in monograph "tablets" section "oral lyophilisates". The disintegration time is acceptable if the oral lyophilisate disintegrates within 3 minutes in 200mL of "purified water R" at temperatures between 15°C and 25°C. Herein, disintegration is the loss of the overall structure, whereas dissolution means that the compound is completely dissolved.
This method was adjusted for the small volume lyophilisates which were used here (∼10 µL initial solution which corresponds to a lyophilysate mass of about 1 mg). Therefore the lyophilized product was added to 300 µL of TRIS buffer (adjusted pH 7.4 at 22°C) without any additional manipulation, e.g. shaking or stirring. In addition to the disintegration time the time until the whole product was completely dissolved, i.e. no visible particles detectable, has been determined at about 22°C (22.1 - 22.3 °C during the experiment).
. It was not possible to lyophilize pure amorphous calcium lactate due to rapid solidification and partially crystallization of the solution, which contained also 12.5%(m/V) amorphous calcium lactate. Table 9: Disintegration time and dissolution time for substances

[2] = Glass transition of the maximally frozen system Tg' by differential scanning calorimetry; details: solutions contained 12.5% (m/V) of the respective amorphous solid
Source text: Further, the temperature Tg' is the glass transition temperature of the maximally frozen system, i.e. the glass transition of the amorphous phase within an ice matrix (from ultrapure water).

[3] = Hygroscopicity measurement by mass increase in a glove box at relative air humidity > 50%; type: physicochemical; details: 1.0g sample, 22.5°C to […], 96 hours, referring to the initial mass
Method: The hygroscopicity of compounds was measured by weighing (Mettler AT261 "Delta Range" balance) in the samples at the start of the experiment and at certain time points within a total period of 96 hours. The increase in mass (in %) was calculated for each sample as: (mt -mt0)/(mt0) × 100% [formula] • wherein mt is the mass of the sample at a certain time t and Mt0 is the mass of the sample at the start when placing it in the glove box.

[4] = tested on: citrated whole blood; test: ROTEM ex-tem assay, recalcification with freeze-dried pellets; details: freeze-dried CaCl2 pellets
Method: The compatibility with coagulation measurement was determined using the ROTEM® device. The measurement was conducted according to the respective automated ROTEM® sequence. 300 µL citrated whole blood (obtained from healthy individuals) were used for each measurement. The pipetting of the respective liquid reagents was performed according to the sequence or was skipped for the solid reagents. […] Coagulation was initiated using the tissue factor based ex-tem® reagent.
The ex-tem® assay was selected because of the tissue factor coagulation activation and the resulting short clotting times (CT). Therefore it was possible to investigate whether the freeze-dried products containing a high amount of solid would dissolve rapidly enough to assure complete recalcification and clotting times within a normal range.

[5] = Moisture uptake, modified Ph. Eur. 5.11 hygroscopicity method; type: physicochemical; details: mass increase during 24h storage over saturated ammonium sulfate solution, 25°C, about 100 mg
Method: It determines the mass increase (% (m/mo)) during a 24h storage period over a saturated ammonium sulfate solution.

[6] = Moisture uptake over saturated K2SO4 solution at about 100% relative humidity; details: about 25°C, amorphous except for CaCl2
[7] = Solubility, Ph. Eur. 5.11 procedure in TRIS buffer
Source text: Table 3: Categorization of solubility according to Ph. Eur. 7.4

[8] = Glass transition temperature Tg by differential scanning calorimetry; type: physicochemical
Method: Hydranal® Coulomat AG Oven served as a reagent. About 10 mg of the substance was used for an expected residual moisture between 5 - 10%(m/m) and about 50 - 80 mg were used for an expected moisture content […]. […]
Primary drying was carried out at Tinlet = -30° C / 30mtorr for 15h followed by secondary drying at 40°C / 30mtorr for 6h with a heating rate between the two steps of 0.3 °C/min. The glass transition temperature as well as the residual moisture content were measured after freeze drying for the respective substance.

| Compound | Disintegration time [1] | Dissolution time (mean ± sdv) [1] | Glass transition of the frozen system (Tg') [2] | Ph. Eur. method Hygroscopicity [5] | Uptake rate during 3h storage at 99.9 % rel. humidity (sat. K2SO4 sol.) [6] | also measured |
| --- | --- | --- | --- | --- | --- | --- |
| calcium lactobionate pantothenate [CLBP] | <1 s | 10 ± 2 s | -18.84 °C |  |  |  |
| [Ca+2].[Cl-].[Cl-] [CaCl2, calcium chloride, reference compound] |  |  |  | CaCl2 = 113.9%(m/mo | 1.000 ratio compared to CaCl2 | mass increase [3]: over 20%; behaviour of freeze-dried pellets (hygroscopicity) [4]: liquefied rapidly |
| calcium lacto pantothenate [CLP] | <1 s | 8 ± 1 s | -23.02 °C |  |  |  |
| calcium ascorbate gluconate [CAG] | <1 s | 11 ± 2 s | -15.70 °C | 19.65 %(m/mo |  |  |
| Calcium lacto ascorbate [CLA] | <1 s | 14 ± 3 s | -20.18 °C |  |  |  |
| O=C([O-])[C@H](O)[C@@H](O)[C@H](O[C@@H]1O[C@H](CO)[C@H](O)[C@H](O)[C@H]1O)[C@H](O)CO.O=C([O-])[C@H](O)[C@@H](O)[C@H](O[C@@H]1O[C@H](CO)[C@H](O)[C@H](O)[C@H]1O)[C@H](O)CO.[Ca+2] [CLB, calcium lactobionate] | <1 s | 13 ± 2 s | -13.27 °C | 21.08 %(m/mo | 0.226 ratio compared to CaCl2 | Ph. Eur. method Solubility ([7]; 100mg substance, TRIS buffer isotonic pH = 7.4, 25.0°C, visual after 1 min. mixing and 15 min. storage): very soluble; Calculated solubility Cs ([7]; category limits of table 3 divided by Mr, 15 min): Cs ≥ 1.325 mol/L |
| calcium lacto gluconate [CLG ME] | <1 s | 19 ± 6 s | -11.74 °C |  | 0.204 ratio compared to CaCl2 |  |
| calcium lacto lactobionate [CLLB] | <1 s | 18 ± 4 s | -15.58 °C | 19.18 %(m/mo | 0.357 ratio compared to CaCl2 | Tg ([8]; CLLB ratio 0, moisture content 14 %(m/m)): 34,39 °C; Tg ([8]; CLLB ratio 0, moisture content 5,196 %(m/m)): 112,86 °C; Tg ([8]; CLLB ratio 0, moisture content 10,151 %(m/m)): 58,45 °C; Tg ([8]; CLLB ratio 34.82, moisture content 0 %(m/m)): 143.05 °C; Tg ([8]; CLLB ratio 34.82, moisture content 4.44 %(m/m)): 104.03 °C; Tg ([8]; CLLB ratio 34.82, moisture content 7.26 %(m/m)): 73.08 °C; Tg ([8]; CLLB ratio 34.82, moisture content 9.86 %(m/m)): 56.42 °C; Tg ([8]; CLLB ratio 34.82, moisture content 11.82 %(m/m)): 47.945 °C; Tg ([8]; CLLB ratio 34.82, moisture content 14.60 %(m/m)): 32.13 °C; Tg ([8]; CLLB ratio 82.77, moisture content 0 %(m/m)): 148.05 °C; Tg ([8]; CLLB ratio 82.77, moisture content 5.19 %(m/m)): 96.38 °C; Tg ([8]; CLLB ratio 82.77, moisture content 6.35 %(m/m)): 79.84 °C; Tg ([8]; CLLB ratio 82.77, moisture content 6.93 %(m/m)): 73.34 °C; Tg ([8]; CLLB ratio 82.77, moisture content 8.00 %(m/m)): 67.39 °C; Tg ([8]; CLLB ratio 82.77, moisture content 14.49 %(m/m)): 34.39 °C; Tg ([8]; CLLB ratio %(m(CL)/m(CLB)) = 100, moisture content 0 %(m/m) (annealed)): 140.08 °C; Tg ([8]; CLLB ratio %(m(CL)/m(CLB)) = 100, moisture content 5.10 %(m/m)): 82.46 °C; Tg ([8]; CLLB ratio %(m(CL)/m(CLB)) = 100, moisture content 8.20 %(m/m)): 64.81 °C; Tg ([8]; CLLB ratio %(m(CL)/m(CLB)) = 100, moisture content 13.87 %(m/m)): 30.65 °C |
| calcium gluconate [CG, reference compound] | <1 s | 9 ± 1 s | -11.08 °C | 20.16 %(m/mo | 0.214 ratio compared to CaCl2 |  |
| calcium ascorbate lactobionate [CALB] | <1 s | 12 ± 1 s | -13.28 °C |  |  |  |
| calcium pantothenate [CP, reference compound] | <1 s | 6 ± 1 s | -25.28 °C | 22.02 %(m/mo |  |  |
| calcium ascorbate [reference compound] | <1 s | 11 ± 1 s | -24.61 °C | 31.77 %(m/mo |  |  |
| CC(O)C(=O)[O-].CC(O)C(=O)[O-].[Ca+2] (stereo not shown) [CL, calcium lactate] |  |  |  | 30.28 %(m/mo | 0.384 ratio compared to CaCl2 |  |

From patent publication EP2884284A1, “Dry diagnostic reagent” (priority 2013, dated 2015)
